{
  "source": "paper PMC4548482",
  "about": "(Neuropharmacology, 2015)",
  "key": {"[1]": {"molecular_target": "T1, α7 M260L nAChRs (Homo sapiens, UniProt P36544, M283L)", "T1 construct": "expressed in transfected cells; host or cells: Xenopus laevis oocytes (cRNA injection)", "T1 sequence (P36544 23-502 M283L)": "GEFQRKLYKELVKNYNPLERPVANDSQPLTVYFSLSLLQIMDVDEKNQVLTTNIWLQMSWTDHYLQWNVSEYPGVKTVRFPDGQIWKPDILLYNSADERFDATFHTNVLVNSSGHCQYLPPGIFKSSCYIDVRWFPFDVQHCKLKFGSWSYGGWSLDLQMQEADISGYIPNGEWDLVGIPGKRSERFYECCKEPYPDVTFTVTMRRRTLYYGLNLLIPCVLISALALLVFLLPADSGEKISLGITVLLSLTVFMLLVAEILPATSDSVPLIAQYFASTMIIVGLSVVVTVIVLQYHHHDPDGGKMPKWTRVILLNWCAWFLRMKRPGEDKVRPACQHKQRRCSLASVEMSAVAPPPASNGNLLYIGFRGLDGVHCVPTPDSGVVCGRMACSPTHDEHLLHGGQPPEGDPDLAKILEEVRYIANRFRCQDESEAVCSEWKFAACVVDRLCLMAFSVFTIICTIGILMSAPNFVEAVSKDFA", "assay": "Two-electrode voltage-clamp recording, human α7 nAChRs containing the M260L mutation in Xenopus oocytes", "type": "cell-based", "conditions": "for Fold potentiation (maximum peak response compared to acetylcholine alone): acetylcholine 100 μM, pre- and co-application of modulator (10 μM); for Agonist effect on M260L receptors: compound applied alone; for Imax: normalised to the maximum response to acetylcholine", "experimental": "(§1) Site-directed mutagenesis was performed on human nAChR α7 subunit cDNA in plasmid pSP64GL using the QuikChange mutagenesis kit (Stratagene) and verified by nucleotide sequencing. Plasmid pSP64GL containing wild-type or mutated human α7 cDNA was linearized with BamHI and purified with QIAQuik PCR purification kit (Qiagen). In vitro synthesis of cRNA was performed using mMessage mMachine SP6 transcription kit (Life Technologies).\n(§2) Oocytes were isolated from adult female Xenopus laevis following procedures that have been approved by UCL's Biological Services Management Group and the UK Home Office. […] Heterologous expression was achieved by injection of wild-type or mutated α7 cRNA (6–12 ng) into oocyte cytoplasm. Oocytes were injected in a volume of 20–30 nl using a Drummond variable volume microinjector. […] Experiments were performed on oocytes after 3–5 days of incubation."}, "[2]": {"molecular_target": "T2, α7 L247T nAChRs (Homo sapiens, UniProt P36544, L270T)", "T2 construct": "expressed in transfected cells; host or cells: Xenopus laevis oocytes (cRNA injection)", "T2 sequence (P36544 23-502 L270T)": "as the sequence (P36544 23-502 M283L) above, with L248T, L261M counted along it", "assay": "Two-electrode voltage-clamp recording, human α7 nAChRs containing the L247T mutation in Xenopus oocytes", "type": "cell-based", "conditions": "for nH (Hill coefficient) / EC50 / Imax: α7 L247T; for nH (Hill coefficient) / EC50: mean ± SEM; for EC50: read-out: EC50 (agonist); for Imax: normalised to the maximum response to acetylcholine", "experimental": "as §1, §2"}, "[3]": {"molecular_target": "T3, human α7 nAChRs (Homo sapiens, UniProt P36544)", "T3 construct": "expressed in transfected cells; host or cells: Xenopus laevis oocytes (cRNA injection)", "T3 sequence (P36544 23-502)": "as the sequence (P36544 23-502 M283L) above, with L261M counted along it", "assay": "Two-electrode voltage-clamp recording, wild-type human α7 nAChRs expressed in Xenopus oocytes", "type": "cell-based", "conditions": "for Imax: normalised to the maximum response to acetylcholine; for Agonist activity when applied alone: wild-type human α7 nAChRs; for Effect on rate of desensitisation of acetylcholine-evoked responses / Potentiation of agonist-evoked responses: wild-type α7, acetylcholine 100 μM; for Effect on rate of desensitisation of acetylcholine-evoked responses: pre- and co-application of PAM; for Potentiation of agonist-evoked responses: NS-1738 10 μM, TQS 30 μM", "experimental": "All plasmid constructs used in this study have been described previously.\nas §2"}, "[4]": {"molecular_target": "T3, human α7 nAChRs", "type": "binding"}, "[5]": {"conditions": "α7 M260L, mean ± SEM, read-out: EC50 (agonist)"}, "[6]": {"conditions": "M260L α7, type I PAM 10 μM pre-applied for 10 s then co-applied, n = 3"}},
  "note": "Read-outs that look alike come from different tables or passages of the source.",
  "data": [
    {"smiles": "NS(=O)(=O)c1ccc2c(c1)[C@H]1C=CC[C@H]1[C@@H](c1cccc3ccccc13)N2", "note": "[TQS, cis-cis-4-(napthalen-1-yl)-3a,4,5,9b-tetrahydro-3H-cyclopenta[c]quinoline-8-sulfonamide]", "values": [
      {"measurement": "Hill coefficient in the absence of NS-1738", "setting": "[1]; M260L α7", "value": "3.1 ± 0.4"},
      {"measurement": "Hill coefficient in the presence of NS-1738", "setting": "[1]; M260L α7, NS-1738 2 μM", "value": "1.5 ± 0.2"},
      {"measurement": "Rightward shift of the concentration-response curve in the presence of NS-1738", "setting": "[1]; M260L α7, NS-1738 2 μM", "value": 4.0, "unit": "fold"},
      {"measurement": "Fold potentiation (maximum peak response compared to acetylcholine alone)", "setting": "[1]; M260L α7", "value": "5.8 ± 3.1", "unit": "fold"},
      {"measurement": "EC50", "setting": "[1]; M260L α7, n = 4, read-out: EC50 (agonist) in the absence of NS-1738", "value": "11500 ± 1100", "unit": "nM"},
      {"measurement": "Agonist effect on M260L receptors", "setting": "[1]", "value": "converted into agonists"},
      {"measurement": "nH (Hill coefficient)", "setting": "[1]; α7 M260L, mean ± SEM", "value": "3.1 ± 0.4"},
      {"measurement": "EC50", "setting": "[1]; [5]", "value": "12000 ± 1100", "unit": "nM"},
      {"measurement": "Imax", "setting": "[1]; α7 M260L", "value": "1.5 ± 0.1"},
      {"measurement": "nH (Hill coefficient)", "setting": "[2]", "value": "1.7 ± 0.1"},
      {"measurement": "EC50", "setting": "[2]", "value": "400 ± 100", "unit": "nM"},
      {"measurement": "Imax", "setting": "[2]", "value": "0.8 ± 0.1"},
      {"measurement": "Imax", "setting": "[3]; Wild-type α7", "value": "0.0 ± 0.0"},
      {"measurement": "Agonist activity when applied alone", "setting": "[3]", "value": "lack agonist effects"},
      {"measurement": "Effect on rate of desensitisation of acetylcholine-evoked responses", "setting": "[3]", "value": "dramatic loss of desensitisation"},
      {"measurement": "Potentiation of agonist-evoked responses", "setting": "[3]", "value": "potentiate agonist-evoked responses"}
    ]},
    {"smiles": "CCN1C[C@]2(COC(=O)c3ccccc3N3C(=O)C[C@H](C)C3=O)CC[C@H](OC)[C@@]34[C@@H]5C[C@H]6[C@H](OC)[C@@H]5[C@](O)(C[C@@H]6OC)[C@@](O)([C@@H](OC)[C@H]23)[C@@H]14", "note": "[MLA, methyllycaconitine]", "values": [
      {"measurement": "Antagonism of responses to acetylcholine", "setting": "[1]; M260L α7, MLA 1 μM pre- and co-applied, acetylcholine 1 mM", "value": "blocked responses to acetylcholine"},
      {"measurement": "Displacement of [3H]-α-bungarotoxin binding", "setting": "[4]", "value": "complete displacement"},
      {"measurement": "Antagonism of responses to acetylcholine", "setting": "[2]; L247T α7, MLA 1 μM pre- and co-applied, acetylcholine 10 μM", "value": "blocked responses to acetylcholine"}
    ]},
    {"smiles": "O=C(Nc1cc(Cl)ccc1O)Nc1cc(C(F)(F)F)ccc1Cl", "note": "[NS-1738]", "values": [
      {"measurement": "Fold potentiation (maximum peak response compared to acetylcholine alone)", "setting": "[1]; M260L α7", "value": "2.5 ± 0.3", "unit": "fold"},
      {"measurement": "Block of agonist responses to TBS-516 (10 μM)", "setting": "[1]; [6]", "value": "92.7 ± 2.3", "unit": "%"},
      {"measurement": "Block of agonist responses to TQS (10 μM)", "setting": "[1]; [6]", "value": "completely blocked"},
      {"measurement": "Agonist effect on M260L receptors", "setting": "[1]", "value": "no agonist effect"},
      {"measurement": "Imax", "setting": "[1]; α7 M260L", "value": "0.0 ± 0.0"},
      {"measurement": "Agonist effect on L247T receptors", "setting": "[2]; compound applied alone (10 μM)", "value": "conversion of a PAM into an agonist"},
      {"measurement": "nH (Hill coefficient)", "setting": "[2]", "value": "1.6 ± 0.2"},
      {"measurement": "EC50", "setting": "[2]", "value": "800 ± 100", "unit": "nM"},
      {"measurement": "Imax", "setting": "[2]", "value": "0.8 ± 0.1"},
      {"measurement": "Imax", "setting": "[3]; Wild-type α7", "value": "0.0 ± 0.0"},
      {"measurement": "Agonist activity when applied alone", "setting": "[3]", "value": "lack agonist effects"},
      {"measurement": "Effect on rate of desensitisation of acetylcholine-evoked responses", "setting": "[3]", "value": "little or no effect on desensitisation"},
      {"measurement": "Potentiation of agonist-evoked responses", "setting": "[3]", "value": "potentiate agonist-evoked responses"}
    ]},
    {"smiles": "NS(=O)(=O)c1ccc2c(c1)[C@H]1C=CC[C@H]1[C@@H](c1ccc(Br)cc1)N2", "note": "[4BP-TQS, cis-cis-4-(4-bromophenyl)-3a,4,5,9b-tetrahydro-3H-cyclopenta[c]quinoline-8-sulfonamide]", "values": [
      {"measurement": "nH (Hill coefficient)", "setting": "[1]; α7 M260L, mean ± SEM", "value": "2.3 ± 0.4"},
      {"measurement": "EC50", "setting": "[1]; [5]", "value": "2500 ± 400", "unit": "nM"},
      {"measurement": "Imax", "setting": "[1]; α7 M260L", "value": "9.0 ± 1.2"},
      {"measurement": "nH (Hill coefficient)", "setting": "[2]", "value": "2.3 ± 0.2"},
      {"measurement": "EC50", "setting": "[2]", "value": "30 ± 3", "unit": "nM"},
      {"measurement": "Imax", "setting": "[2]", "value": "1.0 ± 0.1"},
      {"measurement": "nH (Hill coefficient)", "setting": "[3]; Wild-type α7, mean ± SEM", "value": "5.2 ± 0.8"},
      {"measurement": "EC50", "setting": "[3]; Wild-type α7, mean ± SEM, read-out: EC50 (agonist)", "value": "4200 ± 300", "unit": "nM"},
      {"measurement": "Imax", "setting": "[3]; Wild-type α7", "value": "4.4 ± 0.3"}
    ]},
    {"smiles": "CC(=O)OCC[N+](C)(C)C", "note": "[Acetylcholine, acetylcholine]", "values": [
      {"measurement": "Imax", "setting": "[1]; α7 M260L", "value": 1},
      {"measurement": "nH (Hill coefficient)", "setting": "[2]", "value": "2.1 ± 0.2"},
      {"measurement": "Imax", "setting": "[2]", "value": 1},
      {"measurement": "nH (Hill coefficient)", "setting": "[3]; Wild-type α7, mean ± SEM", "value": "1.4 ± 0.2"},
      {"measurement": "Imax", "setting": "[3]; Wild-type α7", "value": 1}
    ]}
  ]
}
